The results in this text go back to patent publication US9260425B2 (Genetech, Inc., priority 2011, dated 2016).

The target of the test is Pim-1 (Homo sapiens (Human), UniProt P11309). Put plainly: Pim kinase binding activity assay (Example 901), PIM-1 enzyme, Caliper microfluidic peptide phosphorylation. Type of test: biochemical. To be noted: 20 pM PIM-1, 10 μM ATP, 1 μM FAM-peptide, 90 minutes at room temperature. In outline: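 PIM-1 at 20 pM phosphorylated 1 μM FAM-labelled Pim peptide with 10 μM ATP in HEPES pH 7.2, MgCl2, Tween 20 and DTT for 90 min at room temperature. EDTA stopped the reaction, and product and substrate were resolved by microfluidic electrophoresis (ex 488/em 530 nm). Ki was derived from substrate conversion.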
Pim-1, sequence (P11309 whole entry): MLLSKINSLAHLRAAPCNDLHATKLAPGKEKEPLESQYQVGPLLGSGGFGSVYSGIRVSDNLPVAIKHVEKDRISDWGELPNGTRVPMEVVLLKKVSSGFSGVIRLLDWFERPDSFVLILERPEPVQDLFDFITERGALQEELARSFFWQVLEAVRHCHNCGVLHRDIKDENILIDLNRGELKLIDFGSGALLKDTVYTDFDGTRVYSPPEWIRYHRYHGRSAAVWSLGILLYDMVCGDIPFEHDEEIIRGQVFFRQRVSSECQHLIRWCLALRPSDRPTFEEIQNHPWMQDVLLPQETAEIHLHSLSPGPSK
`Cc1ccc(-c2n[nH]c3cnc(-c4cccnc4)cc23)nc1F` [Example 274, 3-(6-fluoro-5-methylpyridin-2-yl)-5-(pyridin-3-yl)-1H-pyrazolo[3,4-c]pyridine] had a Ki of 4.77 nM.

On to `NC(=O)[C@@H]1CCCN1c1ccc(-c2n[nH]c3cnc(-c4cccnc4)cc23)nc1` [Example 344, (S)-1-(6-(5-(pyridin-3-yl)-1H-pyrazolo[3,4-c]pyridin-3-yl)pyridin-3-yl)pyrrolidine-2-carboxamide], for which the Ki is 3.9 nM.

`C=Cc1ccc(-c2n[nH]c3cnc(-c4cnn(C)c4)cc23)nc1N1CCC[C@H](N)C1` [Example 412, (S)-1-(6-(5-(1-methyl-1H-pyrazol-4-yl)-1H-pyrazolo[3,4-c]pyridin-3-yl)-3-vinylpyridin-2-yl)piperidin-3-amine] displayed a Ki of 0.036 nM.

As for `Cn1cc(-c2cc3c(-c4ccc(Br)c(N5CC(N6CCNC(=O)C6)C5)n4)n[nH]c3cn2)cn1` [Example 405, 4-(1-(3-bromo-6-(5-(1-methyl-1H-pyrazol-4-yl)-1H-pyrazolo[3,4-c]pyridin-3-yl)pyridin-2-yl)azetidin-3-yl)piperazin-2-one], the Ki is 0.527 nM.

`NCC1CCN(c2cncc(-c3n[nH]c4cnc(-c5cccnc5)cc34)c2)CC1` [Example 165, (1-(5-(5-(pyridin-3-yl)-1H-pyrazolo[3,4-c]pyridin-3-yl)pyridin-3-yl)piperidin-4-yl)methanamine] returned a Ki of 0.985 nM.

Compound `Cc1n[nH]c2cnc(-c3cncnc3)cc12` [Example 115, 3-methyl-5-(pyrimidin-5-yl)-1H-pyrazolo[3,4-c]pyridine] yielded a Ki of 3500 nM.

For the compound `CCn1cc(-c2cc3c(-c4cccc(N5CCC[C@@H](N)C5)n4)n[nH]c3cn2)cn1` [Example 285, (R)-1-(6-(5-(1-ethyl-1H-pyrazol-4-yl)-1H-pyrazolo[3,4-c]pyridin-3-yl)pyridin-2-yl)piperidin-3-amine], the Ki is 0.0473 nM.

For `N#Cc1cc(-c2n[nH]c3cnc(-c4cccnc4)cc23)cc(N2CCNCC2)c1` [Example 240, 3-(piperazin-1-yl)-5-(5-(pyridin-3-yl)-1H-pyrazolo[3,4-c]pyridin-3-yl)benzonitrile], the Ki stood at 5.28 nM.

As for `Cc1ccc(-c2n[nH]c3cnc(-c4cccnc4)cc23)nc1N1CCC(O)CC1` [Example 288, 1-(3-methyl-6-(5-(pyridin-3-yl)-1H-pyrazolo[3,4-c]pyridin-3-yl)pyridin-2-yl)piperidin-4-ol], the Ki stood at 0.086 nM.

In the case of `c1cncc(-c2cc3c(N4CCCC4)n[nH]c3cn2)c1` [Example 252, 5-(pyridin-3-yl)-3-(pyrrolidin-1-yl)-1H-pyrazolo[3,4-c]pyridine], the affinity corresponds to a Ki of 10 nM.

`Cc1ccc(-c2n[nH]c3cnc(-c4cccnc4)cc23)nc1N1CC[C@@H](O)C1` [Example 306, (R)-1-(3-methyl-6-(5-(pyridin-3-yl)-1H-pyrazolo[3,4-c]pyridin-3-yl)pyridin-2-yl)pyrrolidin-3-ol] yielded a Ki of 0.22 nM.

`N#Cc1cc2c(-c3cccc(N4CCC[C@H](N)C4)n3)n[nH]c2cn1` [Example 399, (S)-3-(6-(3-aminopiperidin-1-yl)pyridin-2-yl)-1H-pyrazolo[3,4-c]pyridine-5-carbonitrile] showed a Ki of 22.6 nM.

The compound `NC1CCN(c2cncc(-c3n[nH]c4cnc(-c5cccnc5)cc34)c2)CC1` [Example 158, 1-(5-(5-(pyridin-3-yl)-1H-pyrazolo[3,4-c]pyridin-3-yl)pyridin-3-yl)piperidin-4-amine] displayed a Ki of 2.1 nM.

`N#Cc1cc2c(-c3cccc(N4CCC[C@@H](N)C4)n3)n[nH]c2cn1` [Example 398, (R)-3-(6-(3-aminopiperidin-1-yl)pyridin-2-yl)-1H-pyrazolo[3,4-c]pyridine-5-carbonitrile] gave a Ki of 39.1 nM.

`O[C@H]1CCN(c2nc(-c3n[nH]c4cnc(-c5cccnc5)cc34)ccc2Br)C1` [Example 318, (S)-1-(3-bromo-6-(5-(pyridin-3-yl)-1H-pyrazolo[3,4-c]pyridin-3-yl)pyridin-2-yl)pyrrolidin-3-ol] gave a Ki of 0.059 nM.

In the case of `Cn1cc(-c2cc3c(-c4ccc(Br)c(N5CC(N6CCS(=O)(=O)CC6)C5)n4)n[nH]c3cn2)cn1` [Example 387, 4-(1-(3-bromo-6-(5-(1-methyl-1H-pyrazol-4-yl)-1H-pyrazolo[3,4-c]pyridin-3-yl)pyridin-2-yl)azetidin-3-yl)-1,1-dioxothiomorpholine], the Ki turned out to be 1.59 nM.

Turning to `O=C1CCCN1c1n[nH]c2cnc(-c3cccnc3)cc12` [Example 258, 1-(5-(pyridin-3-yl)-1H-pyrazolo[3,4-c]pyridin-3-yl)pyrrolidin-2-one], the Ki turned out to be 80.9 nM.

In turn, `CCn1cc(-c2cc3c(-c4cccc(N5CCNCC(F)C5)n4)n[nH]c3cn2)cn1` (stereo not drawn) [Example 504, 5-(1-ethyl-1H-pyrazol-4-yl)-3-(6-(6-fluoro-1,4-diazepan-1-yl)pyridin-2-yl)-1H-pyrazolo[3,4-c]pyridine] showed a Ki of 0.076 nM.

Turning to `c1cncc(-c2cc3c(-c4ccn(C5CCNCC5)n4)n[nH]c3cn2)c1` [Example 215, 3-(1-(piperidin-4-yl)-1H-pyrazol-3-yl)-5-(pyridin-3-yl)-1H-pyrazolo[3,4-c]pyridine], the Ki was 0.313 nM.

Consider `c1ccc(-c2n[nH]c3cnc(-c4cncs4)cc23)nc1` [Example 338, 5-(3-(pyridin-2-yl)-1H-pyrazolo[3,4-c]pyridin-5-yl)thiazole], for which affinity was put at a Ki of 24.5 nM.

In turn, `N[C@H]1CCN(c2ccc(-c3n[nH]c4cnc(-c5cccnc5)cc34)nc2)C1=O` [Example 334, (S)-3-amino-1-(6-(5-(pyridin-3-yl)-1H-pyrazolo[3,4-c]pyridin-3-yl)pyridin-3-yl)pyrrolidin-2-one] yielded an inhibition constant (Ki) of 1.57 nM.

For `Cn1cc(-c2cc3c(-c4cccc(N5CC[C@@H](N)C5)n4)n[nH]c3cn2)cn1` [Example 189, (R)-1-(6-(5-(1-methyl-1H-pyrazol-4-yl)-1H-pyrazolo[3,4-c]pyridin-3-yl)pyridin-2-yl)pyrrolidin-3-amine], the Ki is 0.136 nM.

As for `NCCNc1cccc(-c2n[nH]c3cnc(-c4cccnc4)cc23)n1` [Example 143, N1-(6-(5-(pyridin-3-yl)-1H-pyrazolo[3,4-c]pyridin-3-yl)pyridin-2-yl)ethane-1,2-diamine], the affinity, expressed as Ki, was 0.312 nM.

In turn, `O=C1N(CC2CCNC2)CCN1c1n[nH]c2cnc(-c3cccnc3)cc12` (stereo not drawn) [Example 303, 1-(5-(pyridin-3-yl)-1H-pyrazolo[3,4-c]pyridin-3-yl)-3-(pyrrolidin-3-ylmethyl)imidazolidin-2-one] returned a Ki of 4.11 nM.

The compound `Cc1ccc(-c2n[nH]c3cnc(-c4cnn(C)c4)cc23)nc1N1CCOCC1` [Example 419, 4-(3-methyl-6-(5-(1-methyl-1H-pyrazol-4-yl)-1H-pyrazolo[3,4-c]pyridin-3-yl)pyridin-2-yl)morpholine] came in with a Ki of 0.16 nM.

As to `CCn1cncc(-c2cc3c(-c4cccc(N5CCNCC5)n4)n[nH]c3cn2)c1=O` [Example 515, 3-ethyl-5-(3-(6-(piperazin-1-yl)pyridin-2-yl)-1H-pyrazolo[3,4-c]pyridin-5-yl)pyrimidin-4(3H)-one], affinity was put at a Ki of 0.015 nM.

With `N#CCc1cc2c(-c3cccc(N4CCNCC4)n3)n[nH]c2cn1` [Example 235, 2-(3-(6-(piperazin-1-yl)pyridin-2-yl)-1H-pyrazolo[3,4-c]pyridin-5-yl)acetonitrile], affinity was put at a Ki of 583 nM.

As to `O=C(NC1CCNCC1)c1cccc(-c2n[nH]c3cnc(-c4cccnc4)cc23)n1` [Example 337, N-(piperidin-4-yl)-6-(5-(pyridin-3-yl)-1H-pyrazolo[3,4-c]pyridin-3-yl)picolinamide], the Ki is 30.5 nM.

Compound `Cn1cc(-c2cc3c(-c4cccc(N5CCC[C@](C)(O)C5)n4)n[nH]c3cn2)cn1` [Example 423, (S)-3-methyl-1-(6-(5-(1-methyl-1H-pyrazol-4-yl)-1H-pyrazolo[3,4-c]pyridin-3-yl)pyridin-2-yl)piperidin-3-ol] came in with a Ki of 0.128 nM.

As for `CCn1cc(-c2cc3c(-c4cc(C)ccn4)n[nH]c3cn2)cn1` [Example 492, 5-(1-ethyl-1H-pyrazol-4-yl)-3-(4-methylpyridin-2-yl)-1H-pyrazolo[3,4-c]pyridine], the affinity, expressed as Ki, was 23.2 nM.

The compound `CCn1cc(-c2cc3c(-c4cccc(N5CCC[C@@H](N)CC5)n4)n[nH]c3cn2)cn1` [Example 471, (R)-1-(6-(5-(1-ethyl-1H-pyrazol-4-yl)-1H-pyrazolo[3,4-c]pyridin-3-yl)pyridin-2-yl)azepan-4-amine] gave a Ki of 0.073 nM.

As to `COc1cncc(-c2cc3c(-c4cccc(N5CCNCC5)n4)n[nH]c3cn2)c1` [Example 436, 5-(5-methoxypyridin-3-yl)-3-(6-(piperazin-1-yl)pyridin-2-yl)-1H-pyrazolo[3,4-c]pyridine], the Ki is 0.021 nM.

For the compound `CCn1cc(-c2cc3c(-c4cccc(N5CCN(C6COC6)CC5)n4)n[nH]c3cn2)cn1` [Example 480, 5-(1-ethyl-1H-pyrazol-4-yl)-3-(6-(4-(oxetan-3-yl)piperazin-1-yl)pyridin-2-yl)-1H-pyrazolo[3,4-c]pyridine], the Ki stood at 0.311 nM.

`Fc1ccccc1-c1n[nH]c2cnc(-c3cnccc3OCCC3CCNCC3)cc12` [Example 220, 3-(2-fluorophenyl)-5-(4-(2-(piperidin-4-yl)ethoxy)pyridin-3-yl)-1H-pyrazolo[3,4-c]pyridine] yielded a Ki of 0.379 nM.

For `N[C@@H]1CN(c2cccc(-c3n[nH]c4cnc(-c5cccnc5)cc34)n2)CC[C@@H]1F` (relative stereo) [Example 452, cis-4-fluoro-1-(6-(5-(pyridin-3-yl)-1H-pyrazolo[3,4-c]pyridin-3-yl)pyridin-2-yl)piperidin-3-amine], the Ki turned out to be 0.046 nM.

Compound `Cn1cc(-c2cc3c(-c4ccccn4)n[nH]c3cn2)cn1` [Example 332, 5-(1-methyl-1H-pyrazol-4-yl)-3-(pyridin-2-yl)-1H-pyrazolo[3,4-c]pyridine] displayed a Ki of 7.71 nM.
